# Tests used:
# [1] = target: T1, human GPR52 (Homo sapiens, UniProt Q9Y2T5); assay: Increase of intracellular cAMP concentration in human GPR52-expressing CHO cell (AlphaScreen cAMP assay); format: cell-based; settings: test compound 10 µm, 37°C, 30 min, human GPR52-expressing CHO(dhfr-) cells, 100% = cAMP with 1 µM N-(2-hydroxyethyl)-3-[2-[3-(trifluoromethyl)benzyl]-1-benzofuran-4-yl]benzamide, 0% = DMSO; for activation at 10 µM: 0.5 h, read-out: GPR52 agonist activity (%)
# T1 construct: expressed in transfected cells; host or cells: CHO(dhfr-) cells
# T1 sequence (Q9Y2T5 whole entry): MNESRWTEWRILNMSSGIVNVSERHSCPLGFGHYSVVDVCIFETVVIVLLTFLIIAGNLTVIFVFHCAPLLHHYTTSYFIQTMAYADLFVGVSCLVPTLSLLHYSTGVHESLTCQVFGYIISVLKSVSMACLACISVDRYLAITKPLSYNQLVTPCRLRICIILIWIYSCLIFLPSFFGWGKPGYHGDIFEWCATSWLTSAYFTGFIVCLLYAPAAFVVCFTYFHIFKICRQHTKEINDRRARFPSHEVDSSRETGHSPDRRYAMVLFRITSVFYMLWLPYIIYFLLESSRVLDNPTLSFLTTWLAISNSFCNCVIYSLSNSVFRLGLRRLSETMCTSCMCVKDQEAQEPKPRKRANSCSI
# Procedure, shortened: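 CHO(dhfr-) cells expressing human GPR52 (1×10^4) incubated 30 min at 37°C with compound ([…]) in HBSS, 0.5% BSA, 100 µM IBMX, 100 µM Ro20-1724, 5 mM HEPES pH 7.55. cAMP read by AlphaScreen; 100% set by 1 µM reference benzamide agonist, 0% by DMSO.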
# [2] = test system: methamphetamine-induced locomotor hyperactivity in mice; assay: Inhibition test of methamphetamine-induced locomotor hyperactivity; format: in vivo; settings: male ICR mice, test compound 30 mg/kg body weight orally, methamphetamine 2 mg/kg body weight subcutaneously 60 min later; relative to vehicle treatment group
# Procedure: Inhibition test of methamphetamine-induced locomotor hyperactivity
# The compound of the present invention can be evaluated by assessing its capacity to inhibit methamphetamine-induced locomotor hyperactivity in mice. The method of Okuyama et al (Life Science, Vol. 65, p. 2109-2125 (1999)) was modified and used for testing the inhibition of methamphetamine-induced locomotor hyperactivity.
# Locomotor activity was measured using a 32-channel locomotor activity measurement device MDC-LT (BrainScience Idea Co., Ltd.), which emits infrared beams from the top of a cage (30 cm x 40 cm x 20 cm). 6- to 8-Week-old male ICR mice were acclimated for at least 45 min in the measurement cages, and then either test compound (30 mg/kg body weight) dissolved in vehicle (0.5% aqueous methylcellulose solution) or the vehicle alone was orally administered to the laboratory animals. This oral administration was followed 60 min later by subcutaneous administration of methamphetamine (2 mg/kg body weight).
# The number of times the laboratory animals passed through the infrared beams emitted inside the measurement cages in 150 min after administration of the test compound or vehicle was counted to quantify locomotor activity. The methamphetamine-induced locomotor hyperactivity inhibition rate (activity inhibition rate (%)) was calculated by the following equation. Activityinhibitionrate(%) = {1-(locomotoractivityoftestcompoundtreatmentgroupaftertreatmentwithmethamphetamine÷locomotoractivityofvehicletreatmentgroupaftertreatmentwithmethamphetamine)}x100 [formula]
SMILES,GPR52 agonist activity (%) [1] [%],activation at 10 µM [1] [%],motor activity suppression rate (%) [2] [%]
"Cc1nc(Cc2cccc(C(F)(F)F)c2)sc1NC(=O)c1ccnn1C [Example 3, 1-methyl-N-{4-methyl-2-[3-(trifluoromethyl)benzyl]-1,3-thiazol-5-yl}-1H-pyrazole-5-carboxamide]",81,,32
"Cc1nn(C)cc1C(=O)Nc1sc(Cc2cc(F)cc(Cl)c2)nc1C [Example 146, N-[2-(3-chloro-5-fluorobenzyl)-4-methyl-1,3-thiazol-5-yl]-1,3-dimethyl-1H-pyrazole-4-carboxamide]",,84,42

# Continued, in another order:
GPR52 agonist activity (%) [1] [%],activation at 10 µM [1] [%],SMILES,motor activity suppression rate (%) [2] [%]
,95,"Cc1nc(Cc2cc(F)cc(Cl)c2)sc1NC(=O)c1ccnn1C [Example 145, N-[2-(3-chloro-5-fluorobenzyl)-4-methyl-1,3-thiazol-5-yl]-1-methyl-1H-pyrazole-5-carboxamide]",47
,76,"CCn1nccc1C(=O)Nc1sc(Cc2cc(F)cc(Cl)c2)nc1C [Example 148, N-[2-(3-chloro-5-fluorobenzyl)-4-methyl-1,3-thiazol-5-yl]-1-ethyl-1H-pyrazole-5-carboxamide]",67
,72,"CCCn1nccc1C(=O)Nc1sc(Cc2cc(F)cc(Cl)c2)nc1C [Example 153, N-[2-(3-chloro-5-fluorobenzyl)-4-methyl-1,3-thiazol-5-yl]-1-propyl-1H-pyrazole-5-carboxamide]",39
